Measured values from patent US20240166660A1, “KRAS G12C INHIBITORS” (BeiGene Switzerland GmbH, priority 2021, published 2024).

What follows are compounds tested against KRAS (aa 1-169) G12C, C51S, C80L, C118S (Homo sapiens (Human), UniProt P01116, C118S/C51S/C80L/G12C) (assay: Biochemical functional assay: SOS1-mediated nucleotide exchange of GDP-loaded KRAS G12C, binding to GST-cRaf RBD, FRET readout). Conditions: 3 hrs pre-incubation with compound at 24° C., SOS1, GTPyS, bound in uM.
Summary of the method: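 GDP-loaded His-tagged KRAS construct preincubated with compound 3 h at 24° C in 25 mM HEPES pH7.5, 10 mM MgCl2, 0.01% Triton X-100; SOS1 (aa 564-1049), GTPγS and GST-cRaf RBD added for 3 h, then anti-His Tb cryptate/anti-GST XL665 for 3 h. HTRF 665/620 ratio; IC50 by four-parameter logistic fit.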

Sequence of KRAS (aa 1-169) G12C, C51S, C80L, C118S (P01116 other isoform, or with tags, fused parts or gaps G12C/C51S/C80L/C118S): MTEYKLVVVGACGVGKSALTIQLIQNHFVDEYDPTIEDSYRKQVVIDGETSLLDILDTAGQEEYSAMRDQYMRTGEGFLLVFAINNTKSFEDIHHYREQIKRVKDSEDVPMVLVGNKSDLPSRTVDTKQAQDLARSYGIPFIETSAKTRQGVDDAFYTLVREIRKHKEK

SMILES | IC50 [µM]
C=CC(=O)N1CCN(c2nc(N3CC(N(C)C)C3)nc3cc(-c4ccccc4C#N)c4c(c23)OCCC4)CC1 [Compound B19, 2-(10-(4-acryloylpiperazin-1-yl)-8-(3-(dimethylamino)azetidin-1-yl)-3,4-dihydro-2H-pyrano[2,3-f]quinazolin-5-yl)benzonitrile] | > 10
C=CC(=O)N1CCN(c2ncnc3cc(-c4ccc(O)c(F)c4)c4c(c23)OCCC4)C[C@@H]1CC#N [Compound A28, (S)-2-(1-acryloyl-4-(5-(3-fluoro-4-hydroxyphenyl)-3,4-dihydro-2H-pyrano[2,3-f]quinazolin-10-yl)piperazin-2-yl)acetonitrile] | > 10

Same assay, conditions: 3 hrs pre-incubation with compound at 24° C., SOS1, GTPyS, inhibition of nucleotide exchange

SMILES | IC50 [µM]
C=CC(=O)N1CCN(c2ncnc3cc(-c4c(F)cccc4F)c4c(c23)OCCC4)C[C@@H]1CC#N [Compound A34, (S)-2-(1-acryloyl-4-(5-(2,6-difluorophenyl)-3,4-dihydro-2H-pyrano[2,3-f]quinazolin-10-yl)piperazin-2-yl)acetonitrile] | 2.11
C=CC(=O)N1CC2(CCN(c3ncnc4cc(-c5c(O)cccc5F)c5c(c34)OCCC5)CC2)C1 [Compound A5, 1-(7-(5-(2-fluoro-6-hydroxyphenyl)-3,4-dihydro-2H-pyrano[2,3-f]quinazolin-10-yl)-2,7-diazaspiro[3.5]nonan-2-yl)prop-2-en-1-one] | 1.69
C=CC(=O)N1CCN(c2ncnc3cc(-c4c(Cl)ccc5[nH]ncc45)c4c(c23)OCCC4)C[C@@H]1CC#N (single isomer, unassigned) [Compound A15] | 0.0926
C=C(F)C(=O)N1CCN(c2nc(OC[C@@H]3CCCN3C)nc3cc(-c4cccc5c4CCCC5)c4c(c23)OCCC4)C[C@@H]1CC#N [Compound B81, 2-((S)-1-(2-fluoroacryloyl)-4-(8-(((S)-1-methylpyrrolidin-2-yl)methoxy)-5-(5,6,7,8-tetrahydronaphthalen-1-yl)-3,4-dihydro-2H-pyrano[2,3-f]quinazolin-10-yl)piperazin-2-yl)acetonitrile] | 0.048
C=CC(=O)N1CCN(c2ncnc3cc(-c4c(C)cccc4F)c4c(c23)OCCC4)C[C@@H]1CC#N [Compound A33, 2-((2S)-1-acryloyl-4-(5-(2-fluoro-6-methylphenyl)-3,4-dihydro-2H-pyrano[2,3-f]quinazolin-10-yl)piperazin-2-yl)acetonitrile] | 0.233
C=C(F)C(=O)N1CCN(c2nc(OC[C@@H]3CCCN3C)nc3cc(-c4c(F)c(Cl)cc5[nH]ncc45)c4c(c23)OCCC4)C[C@@H]1CC#N [Compound B42, 2-((2S)-4-(5-(6-chloro-5-fluoro-1H-indazol-4-yl)-8-(((S)-1-methylpyrrolidin-2-yl)methoxy)-3,4-dihydro-2H-pyrano[2,3-f]quinazolin-10-yl)-1-(2-fluoroacryloyl)piperazin-2-yl)acetonitrile] | 0.043
C=C(F)C(=O)N1CCN(c2nc(OC[C@@H]3CCCN3C)nc3cc(-c4ccc(C(F)(F)F)cc4)c4ccoc4c23)C[C@@H]1CC#N [Compound B89, 2-((S)-1-(2-fluoroacryloyl)-4-(7-(((S)-1-methylpyrrolidin-2-yl)methoxy)-4-(4-(trifluoromethyl)phenyl)furo[2,3-f]quinazolin-9-yl)piperazin-2-yl)acetonitrile] | 0.691
C=CC(=O)N1CCN(c2nc(N3CC(N(C)C)C3)nc3cc(-c4c(O)cccc4F)c4c(c23)OCCC4)CC1 [Compound B7, 1-(4-(8-(3-(dimethylamino)azetidin-1-yl)-5-(2-fluoro-6-hydroxyphenyl)-3,4-dihydro-2H-pyrano[2,3-f]quinazolin-10-yl)piperazin-1-yl)prop-2-en-1-one] | 1.09
C=C(F)C(=O)N1CCN(c2nc(OC[C@@H]3CCCN3C)nc3cc(-c4c(Cl)c(C)cc5[nH]ncc45)c4c(c23)OCCC4)C[C@@H]1CC#N [Compound B11, 2-((2S)-4-(5-(5-chloro-6-methyl-1H-indazol-4-yl)-8-(((S)-1-methylpyrrolidin-2-yl)methoxy)-3,4-dihydro-2H-pyrano[2,3-f]quinazolin-10-yl)-1-(2-fluoroacryloyl)piperazin-2-yl)acetonitrile] | 0.00781
C=CC(=O)N1CCN(c2nc(OC[C@@H]3CCCN3C)nc3cc(-c4c(F)cccc4Cl)c4ccoc4c23)CC1 [Compound B57, 1-(4-(4-(2-chloro-6-fluorophenyl)-7-(((S)-1-methylpyrrolidin-2-yl)methoxy)furo[2,3-f]quinazolin-9-yl)piperazin-1-yl)prop-2-en-1-one] | 1.02
C=CC(=O)N1CCN(c2nc(OC[C@@H]3CCCN3C)nc3cc(-c4c(Cl)c(C)cc5[nH]ncc45)c4c(c23)OCCC4)C[C@@H]1CC#N [Compound B1, 2-((2S)-1-acryloyl-4-(5-(5-chloro-6-methyl-1H-indazol-4-yl)-8-(((S)-1-methylpyrrolidin-2-yl)methoxy)-3,4-dihydro-2H-pyrano[2,3-f]quinazolin-10-yl)piperazin-2-yl)acetonitrile] | 0.003
C=C(F)C(=O)N1CCN(c2nc(OC[C@@H]3CCCN3C)nc3cc(-c4cccc5cccc(Cl)c45)c4c(c23)OCCC4)C[C@@H]1CC#N (single isomer, unassigned) [Compound B67] | 0.0046
C=CC(=O)N1CCN(c2ncnc3cc(-c4cc(C(F)(F)F)cc5[nH]ncc45)c4c(c23)OCCC4)C[C@@H]1CC#N [Compound A18, (S)-2-(1-acryloyl-4-(5-(6-(trifluoromethyl)-1H-indazol-4-yl)-3,4-dihydro-2H-pyrano[2,3-f]quinazolin-10-yl)piperazin-2-yl)acetonitrile] | 0.0378
C=CC(=O)N1CCN(c2ncnc3cc(-c4ccc(O)c5ccccc45)c4c(c23)OCCC4)C[C@@H]1CC#N [Compound A21, (S)-2-(1-acryloyl-4-(5-(4-hydroxynaphthalen-1-yl)-3,4-dihydro-2H-pyrano[2,3-f]quinazolin-10-yl)piperazin-2-yl)acetonitrile] | 0.005
C=CC(=O)N1CCN(c2ncnc3cc(-c4c(C)ccc5[nH]ncc45)c4c(c23)OCC=C4)C[C@@H]1CC#N [Compound A9, 2-((2S)-1-acryloyl-4-(5-(5-methyl-1H-indazol-4-yl)-2H-pyrano[2,3-f]quinazolin-10-yl)piperazin-2-yl)acetonitrile] | 0.218
C=CC(=O)N1CCN(c2nc(N3CC(N(C)C)C3)nc3cc(-c4c(F)cccc4F)c4c(c23)OCCC4)CC1 [Compound B2, 1-(4-(5-(2,6-difluorophenyl)-8-(3-(dimethylamino)azetidin-1-yl)-3,4-dihydro-2H-pyrano[2,3-f]quinazolin-10-yl)piperazin-1-yl)prop-2-en-1-one] | 2.24
C=C(F)C(=O)N1CCN(c2nc(N3CC(CC#N)(N(C)C)C3)nc3cc(-c4cccc5cccc(Cl)c45)c4c(c23)OCCC4)C[C@@H]1CC#N (single isomer, unassigned) [Compound B92] | 0.381
C=CC(=O)N1CCN(c2ncnc3cc(-c4c(Cl)c(C)cc5[nH]ncc45)c4c(c23)OCCC4)C[C@@H]1CC#N [Compound A20, 2-((2S)-1-acryloyl-4-(5-(5-chloro-6-methyl-1H-indazol-4-yl)-3,4-dihydro-2H-pyrano[2,3-f]quinazolin-10-yl)piperazin-2-yl)acetonitrile] | 0.0149
C=C(F)C(=O)N1CCN(c2nc(OC[C@@H]3CCCN3C)nc3cc(-c4ccccc4C(F)(F)F)c4c(c23)OCCC4)C[C@@H]1CC#N [Compound B33, 2-((S)-1-(2-fluoroacryloyl)-4-(8-(((S)-1-methylpyrrolidin-2-yl)methoxy)-5-(2-(trifluoromethyl)phenyl)-3,4-dihydro-2H-pyrano[2,3-f]quinazolin-10-yl)piperazin-2-yl)acetonitrile] | 0.051
C=C(F)C(=O)N1CCN(c2ncnc3cc(-c4c(C)cccc4F)c4c(c23)OCCC4)C[C@@H]1CC#N [Compound A30, 2-((2S)-4-(5-(2-fluoro-6-methylphenyl)-3,4-dihydro-2H-pyrano[2,3-f]quinazolin-10-yl)-1-(2-fluoroacryloyl)piperazin-2-yl)acetonitrile] | 1.96
C=C(F)C(=O)N1CCN(c2nc(OCC3C[C@@H](OC)CN3C)nc3cc(-c4cccc5cccc(Cl)c45)c4c(c23)OCCC4)C[C@@H]1CC#N (single isomer, unassigned) [Compound B94] | 0.00463
C=CC(=O)N1CCN(c2nc(N3CC(N(C)C)C3)nc3cc(-c4c(Cl)c(C)cc5[nH]ncc45)c4c(c23)OCCC4)C[C@@H]1CC#N [Compound B4, 2-((2S)-1-acryloyl-4-(5-(5-chloro-6-methyl-1H-indazol-4-yl)-8-(3-(dimethylamino)azetidin-1-yl)-3,4-dihydro-2H-pyrano[2,3-f]quinazolin-10-yl)piperazin-2-yl)acetonitrile] | 0.0047
C=C(F)C(=O)N1CCN(c2nc(OC[C@@H]3CCCN3C)nc3cc(-c4ccccc4C4CC4)c4c(c23)OCCC4)C[C@@H]1CC#N [Compound B32, 2-((S)-4-(5-(2-cyclopropylphenyl)-8-(((S)-1-methylpyrrolidin-2-yl)methoxy)-3,4-dihydro-2H-pyrano[2,3-f]quinazolin-10-yl)-1-(2-fluoroacryloyl)piperazin-2-yl)acetonitrile] | 0.226
C=CC(=O)N1CCN(c2ncnc3cc(-c4c(Cl)c(F)cc5[nH]ncc45)c4c(c23)OCCC4)CC1 [Compound A19, 1-(4-(5-(5-chloro-6-fluoro-1H-indazol-4-yl)-3,4-dihydro-2H-pyrano[2,3-f]quinazolin-10-yl)piperazin-1-yl)prop-2-en-1-one] | 0.691
C=CC(=O)N1CCN(c2ncnc3cc(-c4c(C)c(C)cc5[nH]ncc45)c4c(c23)OCCC4)C[C@@H]1CC#N [Compound A25, 2-((2S)-1-acryloyl-4-(5-(5,6-dimethyl-1H-indazol-4-yl)-3,4-dihydro-2H-pyrano[2,3-f]quinazolin-10-yl)piperazin-2-yl)acetonitrile] | 0.0155
